Data set [1] is described as follows: Solubility of the compound in Tris-HCl at pH 7.5. The format is physicochemical. The settings on record: Tris-HCl buffer.
The nature of data set [2]: Inhibition of F-actin activated rabbit full length myosin 2 ATPase activity after 1 hr by CytoPhos reagent based assay. More on the design: species or system Oryctolagus cuniculus.

Turning to `Cc1ccc2c(c1)C(=O)[C@]1(O)CCN(c3ccccc3)C1=N2`, the solubility in data set [1] is less than 100 µM. Also, in data set [2], the midpoint of inhibition, the IC50, lay at 1.02 µM.
For `O=C1c2cc3ccccc3cc2N=C2N(c3ccccc3)CC[C@@]12O`, in that order: less than 15 µM and 7.97 µM.
`O=C1c2cc3cc[nH]c3cc2N=C2N(c3ccccc3)CC[C@@]12O` came in with a solubility in data set [1] of less than 40 µM. Further, the IC50 in data set [2] was greater than 20 µM.
For `C=CCN1CCc2cc3c(cc21)N=C1N(c2ccccc2)CC[C@@]1(O)C3=O`, in that order: less than 40 µM and 8.46 µM.
On the same counts, the results for `O=C1c2cc3c(cc2N=C2N(c4ccccc4)CC[C@@]12O)NCC3` are less than 50 µM and 14.5 µM.

These data come from ChEMBL document CHEMBL4033699, “Insights into the myosin II inhibitory potency of A-ring-modified (S)-blebbistatin analogs” (Bioorg Med Chem Lett, 2017).
